Results published in US5283331A, “2-halogeno-oxetanocin A and phosphoric ester thereof” (Nippon Kayaku Kabushiki Kaisha, priority 1990, dated 1994).
In brackets after ≈: the same amount, converted by molar mass.

Key:
[1] = Stability to adenosine deaminase (residual percentage by HPLC); format: in vitro ADME, young calf; settings: bovine, pH 6.8, 37° C., 5 units adenosine deaminase; for remaining at 0.5 h: 30 min; for remaining at 1 h: 60 min; for remaining at 2 h: 120 min
Protocol: (§1) Sample (0.05 ml) was dissolved into 20 ml of 0.1M phosphate buffer (pH 6.8), and 5 units of adenosine deaminase originated from young calf intestinal mucous membrane (SIGMA Product No. A-1155) was added. While keeping the resulting mixture at a constant temperature of 37° C., its 1 ml portion was sampled out at predetermined intervals. After adding 1 μmole of coformycin and 10-hold diluting the mixture with water, residual percentage of the sample was determined by reverse phase high performance liquid chromatography (column: Senshu Pak ODS-5121-N, 6.phi.×150 mm; eluent: 0.1M citrate buffer-acetonitrile-methanol (50:2:1); flow rate: 1.8 ml/min.; detection: UV detector, 254 nm).

adenosine deaminase = test: as above; format: in vitro ADME, young calf; settings: 0 min; pH 6.8, 37° C., 5 units adenosine deaminase
Protocol: as §1

HIV = test: Anti-HIV activity in MT-4 cells (viral antigen expression, fluorescent antibody method); format: cell-based
Protocol: Anti-HIV activity (anti-Human Immunodeficiency Virus activity) was measured in the following manner. Thus, about 100,000 cells/ml of MT-4 cells were placed in a 24-well tray, and 100 μl of a solution containing a predetermined quantity of a compound of this invention was added thereto. After culturing it at 37° C. for 2 hours in a 5% (v/v) carbon dioxide incubator, 2.5×10^5 infection units of HIV was added and cultured for 4 days. Then, a portion of the culture fluid was applied onto a slide glass and immobilized with acetone, after which expression of the viral antigen was tested according to the fluorescent antibody method. As the primary antibody of the fluorescent antibody method, a serum of AIDS patient was used. As the secondary antibody, FITC-labelled anti-human IgG was used.
The test were conducted in a comparative manner, using oxetanocin A as a control substance for each of Experiment 1 and 2.

virus = settings: prior art: Journal of Antibiotics 39, 1623-25 (1986), EP-A2-0182315; cited from earlier work
[2] = test system: cytomegalovirus (A0169 strain); test: Anti-cytomegalovirus activity (plaque reduction in human embryo fibroblast); format: cell-based; settings: for EC50: Human betaherpesvirus 5, 240 h, plaque number, human embryo fibroblast, 10 days, 37° C., read-out: Anti-cytomegalovirus activity ED50 (50% inhibitory value)
Protocol: Anti-cytomegalovirus activity was measured in the following manner. Thus, a 35 mm dish having a single layer of human embryo fibroblast was infected with 100 PFU (Plaque Forming Units) of cytomegalovirus (A0169 strain). After adsorption for one hour, it was covered with a layer of a medium [0.5% agarose and 2% fetal calf serum] containing a varied concentration of a compound of this invention. After culturing it for 10 days at 37° C. in a 5% (v/v) carbon dioxide incubator, the number of plaques formed was measured.

Compound | remaining at 10 min [1] [%] | remaining at 0.5 h [1] [%] | remaining at 1 h [1] [%] | remaining at 2 h [1] [%] | Residual percentage (%) (adenosine deaminase) | activity against HIV (in words) (HIV) | antiviral activity (in words) (virus) | activity against cytomegalovirus (in words) [2] | EC50 [2] [µg/mL]
Nc1nc(Cl)nc2c1ncn2[C@@H]1O[C@H](COP(=O)(O)O)[C@H]1CO [Compound No. 6, 2-Chloro-oxetanocin A 4'-phosphate] | 100 | 100 | 100 | 100 | 100 | excellent activities against HIV | – | – | –
Nc1nc(Cl)nc2c1ncn2[C@@H]1O[C@H](CO)[C@H]1CO [Compound No. 2, 2-Chloro-oxetanocin A] | 100 | 100 | 100 | 100 | 100 | excellent activities against HIV | – | – | –
Nc1ncnc2c1ncn2[C@@H]1O[C@H](CO)[C@H]1CO [Oxetanocin] | – | – | – | – | – | – | having an antiviral activity | – | –
Nc1nc(F)nc2c1ncn2[C@@H]1O[C@H](CO)[C@H]1CO [Compound No. 1, 2-Fluoro-oxetanocin A] | 100 | 100 | 100 | 100 | 100 | excellent activities against HIV | – | excellent activity against cytomegalovirus | 0.3 (≈ 1.11 µM)
Nc1ncnc2c1ncn2[C@@H]1O[C@H](CO)[C@H]1CO [Oxetanocin A] | 85 | 28 | 0 | 0 | 100 | – | – | – | 13 (≈ 51.7 µM)
Nc1nc(F)nc2c1ncn2[C@@H]1O[C@H](COP(=O)(O)O)[C@H]1CO [Compound No. 5, 2-Fluoro-oxetanocin A 4'-phosphate] | 100 | 100 | 100 | 100 | 100 | – | – | – | –
